The values below come from patent US20240043427A1 (Gilead Sciences, Inc., priority 2020, published 2024).

“And” between values parts separate entries of the source, which are not always exact repeats. Equal entries are not always repeated. Where two headings read alike, the source gives them in different places. Some results are limits rather than exact numbers.

Assay [1] deals with T1, CD73 (Homo sapiens (Human), UniProt P21589). Put plainly: CD73 Biochemical IC50 Assay. The conditions noted are these: CD73 0.3 nM, AMP 15 uM, 25 mM Tris pH 7.4, 5 mM MgCl2. As for the experimental part: CD73 Biochemical IC50 Assay
T1 sequence (P21589 27-574): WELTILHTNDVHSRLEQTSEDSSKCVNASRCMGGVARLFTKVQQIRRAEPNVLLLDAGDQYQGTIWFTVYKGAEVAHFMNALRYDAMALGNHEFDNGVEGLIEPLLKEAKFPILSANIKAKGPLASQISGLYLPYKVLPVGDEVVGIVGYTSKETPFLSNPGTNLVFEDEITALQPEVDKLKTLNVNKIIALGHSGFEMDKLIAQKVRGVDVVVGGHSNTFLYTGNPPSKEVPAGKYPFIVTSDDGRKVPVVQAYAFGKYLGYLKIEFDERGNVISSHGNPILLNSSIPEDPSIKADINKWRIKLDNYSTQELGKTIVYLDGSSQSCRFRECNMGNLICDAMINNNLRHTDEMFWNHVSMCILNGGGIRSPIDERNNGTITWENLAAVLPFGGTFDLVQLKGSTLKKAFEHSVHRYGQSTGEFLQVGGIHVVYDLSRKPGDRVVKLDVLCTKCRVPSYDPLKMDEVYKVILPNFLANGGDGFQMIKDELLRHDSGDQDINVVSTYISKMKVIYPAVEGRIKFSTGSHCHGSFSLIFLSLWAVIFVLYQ
Compound serial dilutions were pre-spotted into Thermo Nunc assay plate. 50 μL CD73 enzyme buffer (CD73 purchased from R&D system=0.6 nM, 25 mM Tris, pH 7.4, 5 mM MgCl2) was added into the assay plate and incubated for 15 mins. […] The samples were run using Rapid fire.

The target of assay [2] is T1, CD73. Briefly: MDA-MB-231 Cell Based CD73 Activity Assay. Conditions: MDA-MB-231-GFP cells, RPMI medium with 10% human plasma, 200 uM AMP.
For assay [3], the target named is T1, CD73. The class given is biochemical. Conditions: 1 mM NaH2PO4 in enzyme buffer, CD73 0.3 nM, AMP 15 uM.
Assay [4] concerns the target T1, CD73. Briefly: MDA-MB-231 Cell Based CD73 Activity Assay (DMEM). Conditions: MDA-MB-231-GFP cells, DMEM medium with 10% human plasma, 200 uM AMP.

With `O=c1[nH]cc(-c2cc(N3C[C@H](F)[C@@H](F)C3)c3nccn3n2)c(=O)[nH]1` (racemic) [Example 73, 5-[8-[(3S,4S)-3,4-difluoropyrrolidin-1-yl]imidazo[1,2-b]pyridazin-6-yl]-1H-pyrimidine-2,4-dione and 5-[8-[(3R,4R)-3,4-difluoropyrrolidin-1-yl]imidazo[1,2-b]pyridazin-6-yl]-1H-pyrimidine-2,4-dione], the 50% inhibitory concentration (IC50) is 39.7 nM against CD73 [1] and 9.87 nM at CD73 [3]. The EC50 on CD73 [2] stood at 17.4 nM; on CD73 [4], 31.7 nM.
For `N#Cc1cc(F)cc([C@H]2C[C@@H]2c2cc(-c3c[nH]c(=O)[nH]c3=O)nn3ccnc23)c1` (racemic) [Example 85, 3-[(1S,2S)-2-[6-(2,4-dioxo-1H-pyrimidin-5-yl)imidazo[1,2-b]pyridazin-8-yl]cyclopropyl]-5-fluoro-benzonitrile and 3-[(1R,2R)-2-[6-(2,4-dioxo-1H-pyrimidin-5-yl)imidazo[1,2-b]pyridazin-8-yl]cyclopropyl]-5-fluoro-benzonitrile], in that order: 43.3 nM, 1.34 nM, 6.08 nM and 17.7 nM.
For the compound `O=c1[nH]cc(-c2cc([C@H]3C[C@@H]3c3ccc(F)cc3)c3nc(C4CC4)cn3n2)c(=O)[nH]1` (racemic) [Example 86, 5-[2-cyclopropyl-8-[(1S,2S)-2-(4-fluorophenyl)cyclopropyl]imidazo[1,2-b]pyridazin-6-yl]-1H-pyrimidine-2,4-dione and 5-[2-cyclopropyl-8-[(1R,2R)-2-(4-fluorophenyl)cyclopropyl]imidazo[1,2-b]pyridazin-6-yl]-1H-pyrimidine-2,4-dione], the figures for the IC50 on CD73 [1] and against CD73 [3] were 152 nM and 5.66 nM, respectively. The values for the EC50 on CD73 [2] and at CD73 [4] were 21.8 nM and 16.6 nM, respectively.
For `O=c1[nH]cc(-c2cc([C@H]3C[C@@H]3c3ccc(Cl)c(F)c3)c3nccn3n2)c(=O)[nH]1` (racemic) [Example 98, 5-(8-((1S,2S)-2-(4-chloro-3-fluorophenyl)cyclopropyl)imidazo[1,2-b]pyridazin-6-yl)pyrimidine-2,4(1H,3H)-dione and 5-(8-((1R,2R)-2-(4-chloro-3-fluorophenyl)cyclopropyl)imidazo[1,2-b]pyridazin-6-yl)pyrimidine-2,4(1H,3H)-dione], in that order: 16.4 nM, 2 nM, 7.23 nM and 17.7 nM.
For `O=c1[nH]cc(-c2cc([C@H]3C[C@@H]3c3ccc4c(c3)OC(F)(F)O4)c3nccn3n2)c(=O)[nH]1` (racemic) [Example 110, 5-(8-((1S,2S)-2-(2,2-difluorobenzo[d][1,3]dioxol-5-yl)cyclopropyl)imidazo[1,2-b]pyridazin-6-yl)pyrimidine-2,4(1H,3H)-dione and 5-(8-41R,2R)-2-(2,2-difluorobenzo[d][1,3]dioxol-5-yl)cyclopropyl)imidazo[1,2-b]pyridazin-6-yl)pyrimidine-2,4(1H,3H)-dione], in that order: 31.4 nM, 2.96 nM, 7.5 nM and 28.7 nM.
For `N#Cc1ccc([C@H]2C[C@@H]2c2cc(-c3c[nH]c(=O)[nH]c3=O)nn3ccnc23)cc1F` (racemic) [Example 115, 4-((1S,2S)-2-(6-(2,4-dioxo-1,2,3,4-tetrahydropyrimidin-5-yl)imidazo[1,2-b]pyridazin-8-yl)cyclopropyl)-2-fluorobenzonitrile], in that order: 13.3 nM, 1.77 nM, 4.21 nM and 12.9 nM.
Turning to `O=c1[nH]cc(-c2cc(N3CCC(c4ccc(F)cc4)C3)c3nccn3n2)c(=O)[nH]1` (stereo in doubt) [Example 67, 5-[8-[(3R)-3-(4-fluorophenyl)pyrrolidin-1-yl]imidazo[1,2-b]pyridazin-6-yl]-1H-pyrimidine-2,4-dione], the IC50 on CD73 [1] was 30.1 nM; against CD73 [3], 4.83 nM. Also, the EC50 at CD73 [2] worked out at 14.3 nM; at CD73 [4], 30.3 nM.
As for `O=c1[nH]cc(-c2cc(N3CCCC3)c3nccn3n2)c(=O)[nH]1` [Example 9, 5-(8-pyrrolidin-1-ylimidazo[1,2-b]pyridazin-6-yl)-1H-pyrimidine-2,4-dione], the IC50 on CD73 [1] turned out to be 106 nM; against CD73 [3], 19.4 nM. Also, the values for the EC50 on CD73 [2] and at CD73 [4] were 29.1 nM and 58.8 nM, respectively.
As to `O=c1[nH]cc(-c2cc(C3CC3)c3nccn3n2)c(=O)[nH]1` [Example 22, 5-(8-cyclopropylimidazo[1,2-b]pyridazin-6-yl)pyrimidine-2,4(1H,3H)-dione], the IC50 is 55.8 nM and 64.9 nM against CD73 [1]; 35.5 nM on CD73 [3]. Besides, the EC50 is 46.3 nM and 45.1 nM on CD73 [2]; 104 nM at CD73 [4].
As to `O=c1[nH]cc(-c2cc(N3CC(C(F)(F)F)C3)c3nccn3n2)c(=O)[nH]1` [Example 62, 5-(8-(3-(trifluoromethyl)azetidin-1-yl)imidazo[1,2-b]pyridazin-6-yl)pyrimidine-2,4(1H,3H)-dione], the figures for the IC50 on CD73 [1] and at CD73 [3] were 27.2 nM and 8.47 nM, respectively. Moreover, the EC50 turned out to be 25.1 nM on CD73 [2] and 32.2 nM on CD73 [4].
For `CC1(C)CN(c2cc(-c3c[nH]c(=O)[nH]c3=O)nn3ccnc23)C1` [Example 63, 5-(8-(3,3-dimethylazetidin-1-yl)imidazo[1,2-b]pyridazin-6-yl)pyrimidine-2,4(1H,3H)-dione], the IC50 on CD73 [1] turned out to be 70.5 nM; against CD73 [3], 29.1 nM. Moreover, the EC50 on CD73 [2] was found to be 34.7 nM; at CD73 [4] it was 47.4 nM.
For `O=c1[nH]cc(-c2cc(N3CCC(F)(F)CC3)c3nccn3n2)c(=O)[nH]1` [Example 70, 5-[8-(4,4-difluoro-1-piperidyl)imidazo[1,2-b]pyridazin-6-yl]-1H-pyrimidine-2,4-dione], in that order: 221 nM, 134 nM, 240 nM and 285 nM.
With `CC1(C)CCN(c2cc(-c3c[nH]c(=O)[nH]c3=O)nn3ccnc23)C1` [Example 72, 5-[8-(3,3-dimethylpyrrolidin-1-yl)imidazo[1,2-b]pyridazin-6-yl]-1H-pyrimidine-2,4-dione], the IC50 at CD73 [1] turned out to be 26.5 nM; on CD73 [3] it was 6.97 nM. The EC50 at CD73 [2] turned out to be 12.4 nM; at CD73 [4], 25.9 nM.
The like results for `O=c1[nH]cc(-c2cc(N3CCC(F)(F)C3)c3nccn3n2)c(=O)[nH]1` [Example 79, 5-[8-(3,3-difluoropyrrolidin-1-yl)imidazo[1,2-b]pyridazin-6-yl]-1H-pyrimidine-2,4-dione] were, in that order, 25.2 nM, 4.58 nM, 11.7 nM and 20.8 nM.
The like results for `O=c1[nH]cc(-c2cc(N3CCCC(F)(F)C3)c3nccn3n2)c(=O)[nH]1` [Example 93, 5-(8-(3,3-difluoropiperidin-1-yl)imidazo[1,2-b]pyridazin-6-yl)pyrimidine-2,4(1H,3H)-dione] were, in that order, 522 nM, more than 250 nM, 556 nM and 685 nM.

As a reminder, the IC50 is the point on the concentration scale where inhibition reaches its midpoint. For orientation: EC50 means the concentration at which the effect is half-maximal.
